Bridge positions count the residues as written; N and C are the ends. Square brackets hold non-standard residues; d marks the D form. Peptide text beside a SMILES is read from it. S5 = C=CCCC[C@](C)(N)C(=O)O
Tests used:
RSV = conditions: cited from earlier work
From the text: The RSV fusion glycoprotein (F) is the focus of active research in the field of vaccines, neutralizing antibodies, and small molecules. […] RSV F is a type I fusion protein that is activated into a metastable prefusion state upon cleavage by host proteases. The prefusion state contains a hydrophobic fusion peptide, ...

[1] = all solvents tested
[2] = Proteolytic stability assay, trypsin; format: in vitro ADME; conditions: trypsin (isolated protease); 100 mM Tris-HCl pH 8.0, 10 mM CaCl2, 25°C; LC-MS of intact peptide, exponential decay fit; 3 experiments
Protocol: (§1) This is an important parameter to assess for the development of peptide therapeutics. Peptides 4bb, 4ca, and 4a, and the unstapled analog peptide 4, as well as both SAH-RSVFBD isomers, were treated with chymotrypsin or trypsin, and the samples were analyzed by LC/MS to quantify the reaction products over time. […] In comparison, both SAH-RSVFBD isomers were more susceptible to proteolytic degradation, with half-lives of approximately 7 h and 5 min against chymotrypsin and trypsin, respectively.
(§2) In vitro proteolytic degradation was measured via LC-MS using an Agilent Infinity 1280 UHPLC system coupled to an Agilent quadrupole time of flight (QTOF) 6530 instrument with an Agilent Jet Stream electrospray ionization (AJS ESI) source (all from Agilent Technologies, Waldbronn, Germany). Five microliters of digested sample was injected onto a C18 column (Zorbax Eclipse Plus RRHD, 1.8 μm, 2.1 by 100 mm; Agilent Technologies, Waldbronn, Germany) equilibrated with solvent A (5% acetonitrile, 0.2% formic acid) and eluted with a flow rate of 0.4 ml/min over a 5 to 95% gradient of solvent B (95% acetonitrile, 0.2% formic acid) in 5 min, followed by 1.5 min at 95% and 0.5 min posttime. The AJS ESI source was operated with a capillary voltage of 4,000 V and a nozzle voltage of 600 V with a drying gas temperature of 325°C and flow rate of 10 liters/min, nebulizing gas pressure of 20 lb/in^2, and a sheath gas temperature of 300°C and flow rate of 11 liters/min. Mass spectra were acquired in the positive-ion mode from 100 to 3,200 m/z at a rate of 1 scan per second in extended dynamic range (2 GHz) mode. The fragmentor, skimmer, and octopole RF voltages were set to 200, 60, and 750 V, respectively. Data were acquired and analyzed with the Agilent MassHunter Workstation (version B.05).
Peptide digestion was performed as follows: 10 μl of peptide at 0.29 mM in 50:50 acetonitrile-water was dissolved in 990 μl 100 mM Tris-HCl (pH 8.0) with 10 mM CaCl2. Following measurement of the undigested (t0) sample, 10 μl of chymotrypsin at 50 μg/ml in 100 mM Tris-HCl (pH 8.0) with 10 mM CaCl2 was added, and the sample was vortexed and placed immediately in the autosampler, set to 25°C. The level of intact peptide was quantified by serial injection over time. […] The value of the fit at t = 0 min was used to calculate the percentage of the intact peptide at each point as follows: Percent intact (t) = [Vol (t)/Volt0] × 100, where Vol is the total volume calculated using Find Compounds by Molecular Feature and Volt0 is the value of the fit at time t = 0. A plot of the intact peptide MFE peak area over time gave an exponential decay curve, from which the half-life was determined using MatLab […].

[3] = Proteolytic stability assay, chymotrypsin; format: in vitro ADME; conditions: chymotrypsin (isolated protease); 10 μl peptide 0.29 mM in 990 μl 100 mM Tris-HCl pH 8.0, 10 mM CaCl2; 10 μl chymotrypsin 50 μg/ml; 25°C; LC-MS of intact peptide, exponential decay fit; 3 experiments
Protocol: as §1, §2
(§3) Peptide digestion was performed as follows: 10 μl of peptide at 0.29 mM in 50:50 acetonitrile-water was dissolved in 990 μl 100 mM Tris-HCl (pH 8.0) with 10 mM CaCl2. Following measurement of the undigested (t0) sample, 10 μl of chymotrypsin at 50 μg/ml in 100 mM Tris-HCl (pH 8.0) with 10 mM CaCl2 was added, and the sample was vortexed and placed immediately in the autosampler, set to 25°C. The level of intact peptide was quantified by serial injection over time. Integration of the intact peptide compound chromatogram was performed using the Agilent Molecular Feature Extraction (MFE) algorithm. The value of the fit at t = 0 min was used to calculate the percentage of the intact peptide at each point as follows: Percent intact (t) = [Vol (t)/Volt0] × 100, where Vol is the total volume calculated using Find Compounds by Molecular Feature and Volt0 is the value of the fit at time t = 0. A plot of the intact peptide MFE peak area over time gave an exponential decay curve, from which the half-life was determined using MatLab […].

chymotrypsin = assay: Proteolytic stability assay, chymotrypsin; format: in vitro ADME; conditions: treated with chymotrypsin or trypsin, LC/MS
Protocol: as §1, §2, §3

[4] = tested on: rHRSV-mCherry in HEp-2 cells; assay: rHRSV-mCherry inhibition assay; format: cell-based, human respiratory syncytial virus; conditions: HEp-2 cells
Summary of the method: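 HEp-2 cells infected at MOI 0.2 with rHRSV-mCherry preincubated 15–20 min with serially diluted peptide, peptide kept in 2% FBS medium for 48 h at 37°C. Replication read as mCherry fluorescence (ex 580/em 620 nm), normalized to untreated infected cells; duplicates, curves fitted.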

[5] = Far-UV circular dichroism, α-helical content; format: physicochemical; conditions: CD, 10 mM phosphate buffer pH 7.5, 50 μM peptide, 25°C
Protocol: The circular dichroism spectra were acquired on a Chirascan spectropolarimeter. The samples were prepared in 10 mM phosphate buffer, pH 7.5, at a peptide concentration of 50 μM. Data were recorded at 25°C by step scan from 180 nm to 260 nm in a 0.5-mm path length quartz cell using 1-nm wavelength increments and a response time of 1 s. The data were converted to per residue molar ellipticity units [θ] (degree per square centimeter per decimole per residue) and smoothed using the Igor Pro software. The percentage of helicity was calculated as described previously ([35]).

[6] = tested on: recombinant GFP-expressing RSV (strain A2) in A549 cells; format: cell-based, human respiratory syncytial virus; conditions: cellular RSV-eGFP assay, data not shown
Protocol: A549 cells were infected with a recombinant green fluorescent protein (GFP)-expressing RSV (strain A2) ([23]), and the inhibitory activity of the peptide was quantified by flow cytometry.
Each peptide was diluted 3 times by 2-fold serial dilutions. eGFP RSV virus at an MOI of 0.5 was used for the infection, and GFP-positive cells were counted by FACS analysis 24 h p.i. The GFP data were normalized to the fluorescence values observed with virus only and plotted as percent inhibition.
Serial 4-fold dilutions of inhibitors were mixed with eGFP-encoding RSV virus ([23]) with a volume of virus required to achieve approximately 50% of infection in medium containing 2% fetal calf serum. The resulting mixture was added to 24-well plates containing A549 cells. Cells were incubated for 2 h at 37°C, the medium was replaced, and cells were incubated for an additional 24 h. Cells were treated with 300 μl of trypsin for 10 min at 37°C, and the detached cells were diluted in 1 ml of culture medium. Following centrifugation at 1,700 rpm, the pellet was resuspended in 300 μl of PBS–1% fetal bovine serum (FBS) (vol/vol) and GFP-positive cells were counted by fluorescence-activated cell sorter (FACS) analysis. The GFP data were normalized to the fluorescence value observed with virus only. The resulting inhibition curves were fitted in Igor Pro as described above.

[7] = RSV-Cherry MOI 0.2, peptide and virus removed after infection and fresh peptide added, mCherry fluorescence 48 h p.i., at least twice in duplicate

| SMILES | half-life [2] [min] | half-life at 2.9 µM [3] [h] | EC50 [4, 7] [µM] | % Helicity ([5]; Table 2) [%] | % Helicity ([5]; Table 3 (Ala scan)) [%] | also measured |
| --- | --- | --- | --- | --- | --- | --- |
| Cc1cn2nc([C@@H]3CCCCN3C(=O)c3cc(Cl)ccc3NS(C)(=O)=O)cc2nc1N1CC[C@H](N)C1 [GS-5806] | – | – | – | – | – | EC50 (RSV): 0.0004 µM |
| CC[C@H](C)[C@H](NC(=O)[C@H](Cc1ccccc1)NC(=O)[C@H](C)NC(=O)[C@H](CC(C)C)NC(=O)[C@H](CO)NC(=O)[C@H](CCC(N)=O)NC(=O)[C@H](CC(N)=O)NC(=O)[C@@H](NC(=O)[C@H](CCCCN)NC(=O)[C@H](CCC(=O)O)NC(=O)[C@H](CC(N)=O)NC(=O)[C@@H](NC(=O)[C@H](CCC(N)=O)NC(=O)[C@H](CO)NC(=O)[C@@H](NC(=O)[C@H](CCC(=O)O)NC(C)=O)[C@@H](C)CC)C(C)C)[C@@H](C)CC)C(=O)N[C@@H](CCCNC(=N)N)C(N)=O [Peptide 2] (Ac-EISQVNEKINQSLAFIR-NH2) | – | – | – | – | – | solubility [1]: insoluble in all solvents tested |
| CC[C@H](C)[C@H](NC(=O)[C@H](Cc1ccccc1)NC(=O)[C@H](C)NC(=O)[C@H](CC(C)C)NC(=O)[C@H](CO)NC(=O)[C@H](CCC(N)=O)NC(=O)[C@H](CC(N)=O)NC(=O)[C@@H](NC(=O)[C@H](CCCCN)NC(=O)[C@H](CCC(=O)O)NC(C)=O)[C@@H](C)CC)C(=O)N[C@@H](CCCNC(=N)N)C(=O)N[C@@H](CCCCN)C(=O)N[C@@H](CO)C(=O)N[C@@H](CC(=O)O)C(=O)N[C@@H](CCC(=O)O)C(=O)N[C@@H](CC(C)C)C(=O)N[C@@H](CC(C)C)C(=O)N[C@@H](Cc1c[nH]cn1)C(=O)N[C@@H](CC(N)=O)C(=O)N[C@H](C(N)=O)C(C)C [Peptide 4] (Ac-EKINQSLAFIRKSDELLHNV-NH2) | 4.8 | 0.08 | > 50 | – | – | time to full degradation (chymotrypsin): ≤ 10 min |
| CC[C@H](C)[C@H](NC(=O)[C@H](CCCCN)NC(=O)[C@H](CCC(=O)O)NC(C)=O)C(=O)N[C@@H](CC(N)=O)C(=O)N[C@@H](CCC(N)=O)C(=O)N[C@@H](CO)C(=O)N[C@@H](CC(C)C)C(=O)N[C@@]1(C)CCCC=CCCC[C@@](C)(C(=O)N[C@@H](CO)C(=O)N[C@@H](CC(=O)O)C(=O)N[C@@]2(C)CCCC=CCCC[C@@](C)(C(=O)N[C@H](C(N)=O)C(C)C)NC(=O)[C@H](Cc3c[nH]cn3)NC(=O)[C@H](CC(C)C)NC(=O)[C@H](CC(C)C)NC2=O)NC(=O)[C@H](CCCNC(=N)N)NC(=O)[C@H]([C@@H](C)CC)NC(=O)[C@H](Cc2ccccc2)NC1=O [Peptide 4a] (Ac-EKINQSL[S5]FIR[S5]SD[S5]LLH[S5]V-NH2; staple 8-12, 15-19) | 78 | 74.7 | – | 23.5 | 64 | potency relative to hit peptide 3ac [6]: twice more potent |
| CC[C@H](C)[C@H](NC(=O)[C@H](CCCCN)NC(=O)[C@H](CCC(=O)O)NC(C)=O)C(=O)N[C@@]1(C)CCCC=CCCC[C@@](C)(C(=O)N[C@@H](Cc2ccccc2)C(=O)N[C@H](C(=O)N[C@@]2(C)CCCC=CCCC[C@@](C)(C(=O)N[C@@H](CC(C)C)C(=O)N[C@@H](CC(C)C)C(=O)N[C@@H](Cc3c[nH]cn3)C(=O)N[C@@H](CC(N)=O)C(=O)N[C@H](C(N)=O)C(C)C)NC(=O)[C@H](CC(=O)O)NC(=O)[C@H](CO)NC(=O)[C@H](CCCCN)NC2=O)[C@@H](C)CC)NC(=O)[C@H](CC(C)C)NC(=O)[C@H](CO)NC(=O)[C@H](CCC(N)=O)NC1=O [Peptide 4bb] (Ac-EKI[S5]QSL[S5]FI[S5]KSD[S5]LLHNV-NH2; staple 4-8, 11-15) | 18 | 50.1 | 0.74 ± 0.27 | 48.1 | 53 | EC50 ([4]; Table 3 (Ala scan), rHRSV-mCherry MOI 0.2, 2-fold serial dilutions (11 dilutions), duplicate, ± SD of fit): 0.67 ± 0.07 µM |
| CC[C@H](C)[C@@H]1NC(=O)[C@H](CO)NC(=O)[C@](C)(NC(=O)[C@H](CC(=O)O)NC(=O)[C@H](Cc2ccccc2)NC(C)=O)CCCCCCC=CCCC[C@@](C)(C(=O)N[C@@H](CCCCN)C(=O)N[C@H](C(=O)N[C@@H](CC(N)=O)C(=O)N[C@@H](CCC(N)=O)C(=O)N[C@@H](CO)C(=O)N[C@@H](CC(C)C)C(=O)N[C@@H](C)C(=O)N[C@@H](Cc2ccccc2)C(=O)N[C@H](C(=O)N[C@]2(C)CCCCCCC=CCCC[C@@](C)(C(=O)N[C@@H](CC(N)=O)C(=O)N[C@H](C(=O)N[C@@H](CC(N)=O)C(=O)N[C@@H](C)C(=O)NCC(=O)N[C@@H](CCCCN)C(=O)N[C@@H](CO)C(=O)N[C@H](C(N)=O)[C@@H](C)O)C(C)C)NC(=O)[C@H](CC(C)C)NC(=O)[C@H](CC(C)C)NC(=O)[C@H](CCC(=O)O)NC(=O)[C@H](CC(=O)O)NC(=O)[C@H](CO)NC(=O)[C@H](CCCCN)NC2=O)[C@@H](C)CC)[C@@H](C)CC)NC(=O)[C@H](CC(N)=O)NC(=O)[C@H](C(C)C)NC(=O)[C@H](CCC(N)=O)NC(=O)[C@H](CO)NC1=O [RSV-SAHBD (E), reference compound] | 1.2 | 6.5 | – | – | – | – |
